# Results published in ChEMBL document CHEMBL3603745, “Synthesis of ciprofloxacin dimers for evaluation of bacterial permeability in atypical chemical space” (Bioorg Med Chem Lett, 2015).
# Assays:
# Escherichia coli [1] = assay: Antibacterial activity against Escherichia coli imp-4213 by broth microdilution method; type: functional
# Escherichia coli [2] = assay: Antibacterial activity against wild type Escherichia coli ATCC 25922 by broth microdilution method; type: functional
# Escherichia coli [3] = assay: Antibacterial activity against tolC-deficient Escherichia coli NB27005-CDY0039 expressing gyrA S83L […], parC S80I mutant by broth microdilution method; type: functional
# [4] = Inhibition of Escherichia coli recombinant gyrase A2B2 assessed as reduction of pHOT-1 supercoiling after 90 mins
# Pseudomonas aeruginosa [5] = assay: Antibacterial activity against mexX, mexB deficient Pseudomonas aeruginosa NB52023-CDK006 harboring gyrAT83I and parC S87L by broth microdilution method; type: functional
# Pseudomonas aeruginosa [6] = assay: Antibacterial activity against wild type Pseudomonas aeruginosa PAO1 by broth microdilution method; type: functional
# Escherichia coli [7] = assay: Antibacterial activity against tolC-deficient Escherichia coli JW5503-1 by broth microdilution method; type: functional
# Escherichia coli [8] = assay: Antibacterial activity against wild type Escherichia coli BW5328/pAH69 by broth microdilution method; type: functional
# Escherichia coli [9] = assay: Antibacterial activity against wild type Escherichia coli MC4100 by broth microdilution method; type: functional
# Staphylococcus aureus [10] = assay: Antibacterial activity against fluoroquinolone-resistant Staphylococcus aureus NB01006-AVR005 harboring gyrA S84L, parC S80F, parE E471K by broth microdilution method; type: functional
# Staphylococcus aureus [11] = assay: Antibacterial activity against wild type methicillin-susceptible Staphylococcus aureus ATCC 49951 by broth microdilution method; type: functional
# Escherichia coli [12] = assay: Antibacterial activity against fluoroquinolone-resistant Escherichia coli CH10 harboring gyrA S83L D87N, parC S80I E84G, AcrA+ by broth microdilution method; type: functional
# Pseudomonas aeruginosa [13] = assay: Antibacterial activity against mexX, mexB deficient Pseudomonas aeruginosa NB52023-CDK005 harboring gyrAT83I by broth microdilution method; type: functional
# Pseudomonas aeruginosa [14] = assay: Antibacterial activity against Pseudomonas aeruginosa K1542 deficient with mexX, mexB by broth microdilution method; type: functional
# Staphylococcus aureus [15] = assay: Antibacterial activity against wild type Staphylococcus aureus ATCC 29213 by broth microdilution method; type: functional
compound,measurement,setting,value
O=C(O)c1cn(C2CC2)c2cc(N3CCN(CCOCCOCCN4CCN(c5cc6c(cc5F)c(=O)c(C(=O)O)cn6C5CC5)CC4)CC3)c(F)cc2c1=O,MIC,Escherichia coli [1],0.5 µg/mL
same,MIC,Escherichia coli [2],2 µg/mL
same,MIC,Escherichia coli [3],> 32 µg/mL
same,IC50,[4],28.2 µM
same,MIC,Pseudomonas aeruginosa [5],> 32 µg/mL
same,MIC,Pseudomonas aeruginosa [6],32 µg/mL
same,MIC,Escherichia coli [7],0.25 µg/mL
same,MIC,Escherichia coli [8],2 µg/mL
same,MIC,Escherichia coli [9],2 µg/mL
same,MIC,Staphylococcus aureus [10],> 32 µg/mL
same,MIC,Staphylococcus aureus [11],16 µg/mL
same,MIC,Escherichia coli [12],> 32 µg/mL
same,MIC,Pseudomonas aeruginosa [13],> 32 µg/mL
same,MIC,Pseudomonas aeruginosa [14],8 µg/mL
same,MIC,Staphylococcus aureus [15],16 µg/mL
CC(C)(C)OC(=O)NCCCCCC(=O)N1CCN(c2cc3c(cc2F)c(=O)c(C(=O)O)cn3C2CC2)CC1,MIC,Escherichia coli [1],0.25 µg/mL
same,MIC,Escherichia coli [2],> 32 µg/mL
same,MIC,Escherichia coli [3],2 µg/mL
same,IC50,[4],4.35 µM
same,MIC,Pseudomonas aeruginosa [5],> 32 µg/mL
same,MIC,Pseudomonas aeruginosa [6],> 32 µg/mL
same,MIC,Escherichia coli [7],0.06 µg/mL
same,MIC,Escherichia coli [8],> 32 µg/mL
same,MIC,Escherichia coli [9],> 32 µg/mL
same,MIC,Staphylococcus aureus [10],> 32 µg/mL
same,MIC,Staphylococcus aureus [11],2 µg/mL
same,MIC,Escherichia coli [12],> 32 µg/mL
same,MIC,Pseudomonas aeruginosa [13],> 32 µg/mL
same,MIC,Pseudomonas aeruginosa [14],> 32 µg/mL
same,MIC,Staphylococcus aureus [15],2 µg/mL
C=CCN1CCN(c2cc3c(cc2F)c(=O)c(C(=O)O)cn3C2CC2)CC1,MIC,Escherichia coli [1],≤ 0.03 µg/mL
same,MIC,Escherichia coli [2],≤ 0.03 µg/mL
same,MIC,Escherichia coli [3],2 µg/mL
same,IC50,[4],0.58 µM
same,MIC,Pseudomonas aeruginosa [5],32 µg/mL
same,MIC,Pseudomonas aeruginosa [6],1 µg/mL
same,MIC,Escherichia coli [7],≤ 0.03 µg/mL
same,MIC,Escherichia coli [8],0.06 µg/mL
same,MIC,Escherichia coli [9],0.06 µg/mL
same,MIC,Staphylococcus aureus [10],32 µg/mL
same,MIC,Staphylococcus aureus [11],0.125 µg/mL
same,MIC,Escherichia coli [12],> 32 µg/mL
same,MIC,Pseudomonas aeruginosa [13],4 µg/mL
same,MIC,Pseudomonas aeruginosa [14],0.25 µg/mL
same,MIC,Staphylococcus aureus [15],0.125 µg/mL
O=C(CCN1CCN(c2cc3c(cc2F)c(=O)c(C(=O)O)cn3C2CC2)CC1)NCCOCCNC(=O)CCN1CCN(c2cc3c(cc2F)c(=O)c(C(=O)O)cn3C2CC2)CC1,MIC,Escherichia coli [1],8 µg/mL
same,MIC,Escherichia coli [2],32 µg/mL
same,MIC,Escherichia coli [3],> 32 µg/mL
same,IC50,[4],9.09 µM
same,MIC,Pseudomonas aeruginosa [5],> 32 µg/mL
same,MIC,Pseudomonas aeruginosa [6],> 32 µg/mL
same,MIC,Escherichia coli [7],4 µg/mL
same,MIC,Escherichia coli [8],32 µg/mL
same,MIC,Escherichia coli [9],32 µg/mL
same,MIC,Staphylococcus aureus [10],> 32 µg/mL
same,MIC,Staphylococcus aureus [11],> 32 µg/mL
same,MIC,Escherichia coli [12],> 32 µg/mL
same,MIC,Pseudomonas aeruginosa [13],> 32 µg/mL
same,MIC,Pseudomonas aeruginosa [14],> 32 µg/mL
same,MIC,Staphylococcus aureus [15],> 32 µg/mL
O=C(O)c1cn(C2CC2)c2cc(N3CCN(CCOCCOCCOc4ccc5ccc(=O)oc5c4)CC3)c(F)cc2c1=O,MIC,Escherichia coli [1],0.125 µg/mL
same,MIC,Escherichia coli [2],1 µg/mL
same,MIC,Escherichia coli [3],> 32 µg/mL
same,IC50,[4],6.67 µM
same,MIC,Pseudomonas aeruginosa [5],> 32 µg/mL
same,MIC,Pseudomonas aeruginosa [6],16 µg/mL
same,MIC,Escherichia coli [7],≤ 0.03 µg/mL
same,MIC,Escherichia coli [8],1 µg/mL
same,MIC,Escherichia coli [9],2 µg/mL
same,MIC,Staphylococcus aureus [10],> 32 µg/mL
same,MIC,Staphylococcus aureus [11],2 µg/mL
same,MIC,Escherichia coli [12],> 32 µg/mL
same,MIC,Pseudomonas aeruginosa [13],> 32 µg/mL
same,MIC,Pseudomonas aeruginosa [14],8 µg/mL
same,MIC,Staphylococcus aureus [15],2 µg/mL
O=C(O)c1cn(C2CC2)c2cc(N3CCN(C(=O)OCCOCCOCCOC(=O)N4CCN(c5cc6c(cc5F)c(=O)c(C(=O)O)cn6C5CC5)CC4)CC3)c(F)cc2c1=O,MIC,Escherichia coli [1],0.25 µg/mL
same,MIC,Escherichia coli [2],16 µg/mL
same,MIC,Escherichia coli [3],32 µg/mL
same,IC50,[4],7.25 µM
same,MIC,Pseudomonas aeruginosa [5],> 32 µg/mL
same,MIC,Pseudomonas aeruginosa [6],> 32 µg/mL
same,MIC,Escherichia coli [7],0.125 µg/mL
same,MIC,Escherichia coli [8],16 µg/mL
same,MIC,Escherichia coli [9],16 µg/mL
same,MIC,Staphylococcus aureus [10],> 32 µg/mL
same,MIC,Staphylococcus aureus [11],2 µg/mL
same,MIC,Escherichia coli [12],> 32 µg/mL
same,MIC,Pseudomonas aeruginosa [13],> 32 µg/mL
same,MIC,Pseudomonas aeruginosa [14],16 µg/mL
same,MIC,Staphylococcus aureus [15],4 µg/mL
Cc1cc(C(=O)N2CCN(c3cc4c(cc3F)c(=O)c(C(=O)O)cn4C3CC3)CC2)cc(C(=O)N2CCN(c3cc4c(cc3F)c(=O)c(C(=O)O)cn4C3CC3)CC2)c1,MIC,Escherichia coli [1],≤ 0.03 µg/mL
same,MIC,Escherichia coli [2],0.5 µg/mL
same,MIC,Escherichia coli [3],16 µg/mL
same,IC50,[4],1.16 µM
same,MIC,Pseudomonas aeruginosa [5],> 32 µg/mL
same,MIC,Pseudomonas aeruginosa [6],4 µg/mL
same,MIC,Escherichia coli [7],≤ 0.03 µg/mL
same,MIC,Escherichia coli [8],0.5 µg/mL
same,MIC,Escherichia coli [9],0.5 µg/mL
same,MIC,Staphylococcus aureus [10],> 32 µg/mL
same,MIC,Staphylococcus aureus [11],0.5 µg/mL
same,MIC,Escherichia coli [12],> 32 µg/mL
same,MIC,Pseudomonas aeruginosa [13],8 µg/mL
same,MIC,Pseudomonas aeruginosa [14],0.5 µg/mL
same,MIC,Staphylococcus aureus [15],1 µg/mL
O=C(O)c1cn(C2CC2)c2cc(N3CCN(CCOCCOCCOCCN4CCN(c5cc6c(cc5F)c(=O)c(C(=O)O)cn6C5CC5)CC4)CC3)c(F)cc2c1=O,MIC,Escherichia coli [1],0.25 µg/mL
same,MIC,Escherichia coli [2],1 µg/mL
same,MIC,Escherichia coli [3],> 32 µg/mL
same,IC50,[4],4.04 µM
same,MIC,Pseudomonas aeruginosa [5],> 32 µg/mL
same,MIC,Pseudomonas aeruginosa [6],16 µg/mL
same,MIC,Escherichia coli [7],0.125 µg/mL
same,MIC,Escherichia coli [8],1 µg/mL
same,MIC,Escherichia coli [9],1 µg/mL
same,MIC,Staphylococcus aureus [10],> 32 µg/mL
same,MIC,Staphylococcus aureus [11],8 µg/mL
same,MIC,Escherichia coli [12],> 32 µg/mL
same,MIC,Pseudomonas aeruginosa [13],32 µg/mL
same,MIC,Pseudomonas aeruginosa [14],32 µg/mL
same,MIC,Staphylococcus aureus [15],16 µg/mL
CN(CC(=O)N1CCN(c2cc3c(cc2F)c(=O)c(C(=O)O)cn3C2CC2)CC1)CC(=O)N1CCN(c2cc3c(cc2F)c(=O)c(C(=O)O)cn3C2CC2)CC1,MIC,Escherichia coli [1],0.06 µg/mL
same,MIC,Escherichia coli [2],0.25 µg/mL
same,MIC,Escherichia coli [3],32 µg/mL
same,IC50,[4],4.37 µM
same,MIC,Pseudomonas aeruginosa [5],32 µg/mL
same,MIC,Pseudomonas aeruginosa [6],2 µg/mL
same,MIC,Escherichia coli [7],0.06 µg/mL
same,MIC,Escherichia coli [8],0.25 µg/mL
same,MIC,Escherichia coli [9],0.25 µg/mL
same,MIC,Staphylococcus aureus [10],> 32 µg/mL
same,MIC,Staphylococcus aureus [11],2 µg/mL
same,MIC,Escherichia coli [12],> 32 µg/mL
same,MIC,Pseudomonas aeruginosa [13],8 µg/mL
same,MIC,Pseudomonas aeruginosa [14],0.5 µg/mL
same,MIC,Staphylococcus aureus [15],4 µg/mL
